Target: HGFR (c-Met) (Homo sapiens, UniProt P08581)
Test: HGFR Continuous-Coupled Spectrophotometric Assay
Type: biochemical
Conditions: for Ki: HGFR enzyme 50 nM, Met-2 peptide substrate, 37° C.; for inhibition at 1 µM: compound at 1 μM
Method: The general procedure is as follows: compounds and kinase assay reagents are introduced into test wells. The assay is initiated by addition of the kinase enzyme. Enzyme inhibitors reduce the measured activity of the enzyme.
In the continuous-coupled spectrophotometric assay the time-dependent production of ADP by the kinase is determined by analysis of the rate of consumption of NADH by measurement of the decrease in absorbance at 340 nm. As the PK produces ADP it is re-converted to ATP by reaction with phosphoenol pyruvate and pyruvate kinase. Pyruvate is also produced in this reaction. Pyruvate is subsequently converted to lactate by reaction with lactate dehydrogenase, which simultaneously converts NADH to NAD.
HGFR Continuous-Coupled Spectrophotometric Assay
This assay analyzes the tyrosine kinase activity of HGFR on the Met-2 substrate peptide, a peptide derived from the activation loop of the HGFR.
• 1. […] Dissolve up in 200 mM HEPES, pH 7.5 at 10 mM stock. • 3. 1 M PEP (phospho-enol-pyruvate) in 200 mM HEPES, pH 7.5 • 4. 100 mM NADH (B-Nicotinamide Adenine Dinucleotide, Reduced Form) in 200 mM HEPES, pH 7.5 • 5. 4 M MgCl2 (Magnesium Chloride) in ddH2O 6. 1 M DTT (Dithiothreitol) in 200 mM HEPES, pH 7.5 • 7. 15 Units/mL LDH (Lactic Dehydrogenase) • 8. 15 Units/mL PK (Pyruvate Kinase) • 9. 5M NaCl dissolved in ddH2O • 10. Tween-20 (Protein Grade) 10% Solution • 11. 1 M HEPES buffer: (N-[2-Hydroxethyl]piperazine-N-[2-ethanesulfonic acid]) Sodium Salt. Dissolve in ddH2O, adjust pH to 7.5, bring volume to 1 L. Filter at 0.1 μm. • 12. […] 100% DMSO (SIGMA) • 14. […] Beckman DU-650 w/ micro cell holders • 18. Beckman 4-position micro cell cuvette Procedure:
Prep Dilution Buffer (DB) for Enzyme (For 30 mL prep) • 1. DB final concentration is 2 mM DTT, 25 mM NaCl2, 5 mM MgCl2, 0.01% Tween-20, and 50 mM HEPES buffer, pH 7.5. • 2. Make up 50 mM HEPES by adding 1.5 mL 1 M HEPES into 28.1 mL of ddH2O. Add rest of the reagents. Into 50 mL conical vial, add 60 μL of 1M DTT, 150 μL 5M NaCl2, 150 μL 1M MgCl2, and 30 μL of 10% Tween-20 to give total volume of 30 mL. • 3. Vortex for 5-10 seconds. • 4. Aliquot out DB at 1 mL/tube and label tubes as “DB HGFR” • 5. Note: This can be prepared and stored ahead of time. • 6. Freeze un-used aliquots in microcentrifuge tubes at −20° C. freezer.
Prep Compounds • 1. For compound dilution plate, add 4 μL of 10 mM stock into column 1 of plate, and bring volume to 100 μL with 100% DMSO. • 2. Set up the Precision 2000 dilution method. A final concentration of 200 μM compound in 50% DMSO, 100 mM HEPES (1:2 serial dilution).
Prep Coupled Enzymatic Buffer:
1. Final concentration in assay:
• 2. For a 10 mL reaction buffer add 10 μL of 1M PEP, 33 μL of 100 mM NADH, 50 μL of 4M MgCl2, 20 μL of 1M DTT, 6 μL of 500 mM ATP, and […] of 10 mM Met-2 peptide into 100 mM HEPES buffer pH 7.5 and vortex/mix. • 3. Add coupling enzymes, LDH and PK, into reaction mix. Mix by gentle inversion.
1. Spectrophotometer settings:
• 2. Add 85 μL of CE reaction mix into each well of assay plate. • 3. Add 5 μL of diluted compound into a well of the assay plate. • 4. Add 5 μL of 50% DMSO for negative control into last column of assay plate. • 5. Mix with multi-channel pipettor or orbital shaker. • 6. Pre-incubate for 10 minutes at 37° C. • 7. Add 10 μL of 500 nM HGFR to each well of assay plate; the final HGFR concentration is 50 nM in a total final volume of 100 μL. • 8. Measure activity for 10 minutes at λ=340 nm and 37° C.
Ki data were obtained using the HGFR Continuous-Coupled Spectrophotometric Assay, and IC50 data were obtained using the Cellular HGFR Autophosphorylation Assay, both of which are described above.

Sequence of HGFR (c-Met) (P08581 974-1390): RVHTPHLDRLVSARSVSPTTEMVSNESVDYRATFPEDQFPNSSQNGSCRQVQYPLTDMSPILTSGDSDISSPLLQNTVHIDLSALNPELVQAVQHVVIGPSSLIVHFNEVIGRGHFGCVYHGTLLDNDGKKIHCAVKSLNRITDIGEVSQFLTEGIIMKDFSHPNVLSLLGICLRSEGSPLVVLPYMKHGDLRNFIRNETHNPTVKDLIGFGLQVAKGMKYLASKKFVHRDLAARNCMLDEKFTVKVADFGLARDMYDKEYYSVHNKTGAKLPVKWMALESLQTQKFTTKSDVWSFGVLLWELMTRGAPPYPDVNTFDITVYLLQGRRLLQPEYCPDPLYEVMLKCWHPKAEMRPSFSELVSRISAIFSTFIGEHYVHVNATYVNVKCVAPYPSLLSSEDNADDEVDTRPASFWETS

| Ki [nM] | inhibition at 1 µM [%] | Structure (SMILES) |
| --- | --- | --- |
| 39 | 94 | CCN(CCO)C(=O)c1ccc(-c2cnc(N)c(OC(C)c3c(Cl)ccc(F)c3Cl)c2)cc1 (centres unmarked) [Example 1, 4-{6-Amino-5-[1-(2,6-dichloro-3-fluorophenyl)ethoxy]-pyridin-3-yl}N-ethyl-N-(2-hydroxyethyl)benzamide] |
| 33 | 95 | CC(Oc1cc(-c2ccc(C(=O)N(C)CCC#N)cc2)cnc1N)c1c(Cl)ccc(F)c1Cl (centres unmarked) [Example 2, 4-{6-Amino-5-[1-(2,6-dichloro-3-fluorophenyl)ethoxy]pyridin-3-yl}-N-(2-cyanoethyl)-N-methylbenzamide] |
| 44 | 95 | COCCN1CCN(C(=O)c2ccc(-c3cnc(N)c(OC(C)c4c(Cl)ccc(F)c4Cl)c3)cc2)CC1 (centres unmarked) [Example 4] |
| 20 | 94 | CC(Oc1cc(-c2ccc(C(=O)N3CC[N@]4C[C@H]3C4)cc2)cnc1N)c1c(Cl)ccc(F)c1Cl (some centres unmarked) [Example 8, 5-[4-(1,4-Diazabicyclo[3.1.1]hept-4-ylcarbonyl)phenyl]-3-[1-(2,6-dichloro-3-fluorophenyl)ethoxy]pyridin-2-amine] |
| 37 | 91 | CNCCNC(=O)c1ccc(-c2cnc(N)c(OC(C)c3c(Cl)ccc(F)c3Cl)c2)cc1 (centres unmarked) [Example 9, 4-{6-Amino-5-[1-(2,6-dichloro-3-fluorophenyl)ethoxy]pyridin-3-yl}-N-[2-(methylamino)ethyl)benzamide] |
| 37 | 89 | CNCCCNC(=O)c1ccc(-c2cnc(N)c(OC(C)c3c(Cl)ccc(F)c3Cl)c2)cc1 (centres unmarked) [Example 10, 4-{6-Amino-5-[1-(2,6-dichloro-3-fluorophenyl)ethoxy]pyridin-3-yl}-N-[3-(methylamino)propyl)benzamide] |
| 45 | 86 | CC(Oc1cc(-c2ccc(C(=O)NCCCN)cc2)cnc1N)c1c(Cl)ccc(F)c1Cl (centres unmarked) [Example 11, 4-(6-Amino-5-[1-(2,6-dichloro-3-fluorophenyl)ethoxy]pyridin-3-yl}-N-(3-aminopropyl) benzamide] |
| 68 | 90 | CC(Oc1cc(-c2ccc(C(=O)NCCN)cc2)cnc1N)c1c(Cl)ccc(F)c1Cl (centres unmarked) [Example 17, 4-{6-Amino-5-[1-(2,6-dichloro-3-fluorophenyl)ethoxy]pyridin-3-yl}N-(2-aminoethyl) benzamide] |
| 36 | 90 | CCNCCNC(=O)c1ccc(-c2cnc(N)c(OC(C)c3c(Cl)ccc(F)c3Cl)c2)cc1 (centres unmarked) [Example 18, 4-{6-Amino-5-[1-(2,6-dichloro-3-fluorophenyl)ethoxy]pyridin-3-yl}-N-[2-(ethylamino)ethyl]benzamide] |
| 27.2 | – | COc1cc(-c2cnc(N)c(OC(C)c3c(Cl)ccc(F)c3Cl)c2)ccc1C(=O)N1C[C@@H](C)N[C@@H](C)C1 (stereo partly drawn) [Example 23, 3-[1-(2,6-dichloro-3-fluorophenyl)ethoxy]-5-(4-{[(3R,5S)-3,5-dimethylpiperazin-1-yl]carbonyl}-3-methoxyphenyl)pyridin-2-amine] |
| 1030 | – | COc1cc(-c2cnc(N)c(OC(C)c3c(Cl)ccc(F)c3Cl)c2)ccc1C(=O)N1CCCCC1 (centres unmarked) [Example 24, 3-[1-(2,6-dichloro-3-fluorophenyl)ethoxy]-5-[3-methoxy-4-(piperidin-1-ylcarbonyl)phenyl]pyridin-2-amine] |
| 87.7 | – | CC(Oc1cc(-c2ccc(-c3ccno3)cc2)cnc1N)c1c(Cl)ccc(F)c1Cl (centres unmarked) [Example 25, 3-[1-(2,6-dichloro-3-fluorophenyl)ethoxy]-5-(4-isoxazol-5-ylphenyl)pyridin-2-amine] |
| 79.5 | – | COc1cc(-c2cnc(N)c(OC(C)c3c(Cl)ccc(F)c3Cl)c2)ccc1CO (centres unmarked) [Example 26, (4-{6-amino-5-[1-(2,6-dichloro-3-fluorophenyl)ethoxy]pyridin-3-yl}-2-methoxyphenyl) methanol] |

The next lines start with the molecule.

| Structure (SMILES) | Ki [nM] | inhibition at 1 µM [%] |
| --- | --- | --- |
| CC(C)NC(=O)CN1CCN(C(=O)c2ccc(-c3cnc(N)c(OC(C)c4c(Cl)ccc(F)c4Cl)c3)cc2)CC1 (centres unmarked) [Example 3, 2-[4-(4-{6-Amino-5-[1-(2,6-dichloro-3-fluorophenyl)ethoxy]pyridin-3-yl}benzoyl)piperazin-1-yl]-N-isopropylacetamide] | 26 | – |
| CC(Oc1cc(-c2ccc(C(=O)N3CCS(=O)(=O)CC3)cc2)cnc1N)c1c(Cl)ccc(F)c1Cl (centres unmarked) [Example 5, 3-[1-(2,6-Dichloro-3-fluorophenyl)ethoxy]-5-{4-[(1,1-dioxidothiomorpholin-4-yl)carbonyl]phenyl)pyridine-2-amine] | 31 | 96 |
| CC(Oc1cc(-c2ccc(C(=O)N3CCC(N(C)C)CC3)cc2)cnc1N)c1c(Cl)ccc(F)c1Cl (centres unmarked) [Example 6] | 24 | 95 |
| CC(Oc1cc(-c2ccc(C(=O)N3CCN(C4CCN(C)CC4)CC3)cc2)cnc1N)c1c(Cl)ccc(F)c1Cl (centres unmarked) [Example 7, 3-[1-(2,6-Dichloro-3-fluorophenyl)ethoxy]-5-(4-{[4-(1-methylpiperidin-4-yl)piperazin-1-yl]carbonyl)phenyl)pyridin-2-amine] | 26 | 96 |
| CC(Oc1cc(-c2ccc(C(=O)NC3CCNCC3)cc2)cnc1N)c1c(Cl)ccc(F)c1Cl (centres unmarked) [Example 12, 4-{6-Amino-5-[1-(2,6-dichloro-3-fluorophenyl)ethoxy]pyridin-3-yl}-N-piperidin-4-ylbenzamide] | 41 | 86 |
| CC(Oc1cc(-c2ccc(C(=O)NCC3CCNCC3)cc2)cnc1N)c1c(Cl)ccc(F)c1Cl (centres unmarked) [Example 13, 4-{6-Amino-5-[1-(2,6-dichloro-3-fluorophenyl)ethoxy]pyridin-3-yl}-N-(piperidin-4-ylmethyl)benzamide] | 48 | 87 |
| CC(Oc1cc(-c2ccc(C(=O)NCC3CCNC3)cc2)cnc1N)c1c(Cl)ccc(F)c1Cl (centres unmarked) [Example 15, 4-{6-Amino-5-[1-(2,6-dichloro-3-fluorophenyl)ethoxy]pyridin-3-yl}-N-(pyrrolidin-3-ylmethyl)benzamide] | 71 | 85 |
| CC(Oc1cc(-c2ccc(C(=O)NC3CCCNC3)cc2)cnc1N)c1c(Cl)ccc(F)c1Cl (centres unmarked) [Example 16, 4-{6-Amino-5-[1-(2,6-dichloro-3-fluorophenyl)ethoxy]pyridin-3-yl}-N-piperidin-3-ylbenzamide] | 44 | 91 |
| CC(Oc1cc(-c2ccc(C(=O)N3CCC4(CCNCC4)C3)cc2)cnc1N)c1c(Cl)ccc(F)c1Cl (centres unmarked) [Example 19, 5-[4-(2,8-Diazaspiro[4.5]dec-2-ylcarbonyl)phenyl]-3-[1-(2,6-dichloro-3-fluorophenyl)ethoxy]pyridin-2-amine] | 46 | 93 |
| CC(Oc1cc(-c2ccc(C(=O)N3CC4CNCC4C3)cc2)cnc1N)c1c(Cl)ccc(F)c1Cl (centres unmarked) [Example 20, 3-[1-(2,6-Dichloro-3-fluorophenyl)ethoxy]-5-[4-(hexahydropyrrolo[3,4-c]pyrrrol-2 (1H)-ylcarbonyl)phenyl]pyridin-2-amine] | 26 | 93 |
